Assay results: ChEMBL document CHEMBL3431459, “Roche carnitine palmitoyltransferase modulator screening data (supplementary data associated with the publication CHEMBL2216752)”

Assays:
[1] = molecular target: T1, Carnitine O-palmitoyltransferase 1, muscle isoform (Homo sapiens, UniProt Q92523); assay: SUPPLEMENTARY: Inhibition of Carnitine palmitoyltransferase 1, muscle isoform; parameters: species or system Muscle tissue
T1 sequence (Q92523 whole entry): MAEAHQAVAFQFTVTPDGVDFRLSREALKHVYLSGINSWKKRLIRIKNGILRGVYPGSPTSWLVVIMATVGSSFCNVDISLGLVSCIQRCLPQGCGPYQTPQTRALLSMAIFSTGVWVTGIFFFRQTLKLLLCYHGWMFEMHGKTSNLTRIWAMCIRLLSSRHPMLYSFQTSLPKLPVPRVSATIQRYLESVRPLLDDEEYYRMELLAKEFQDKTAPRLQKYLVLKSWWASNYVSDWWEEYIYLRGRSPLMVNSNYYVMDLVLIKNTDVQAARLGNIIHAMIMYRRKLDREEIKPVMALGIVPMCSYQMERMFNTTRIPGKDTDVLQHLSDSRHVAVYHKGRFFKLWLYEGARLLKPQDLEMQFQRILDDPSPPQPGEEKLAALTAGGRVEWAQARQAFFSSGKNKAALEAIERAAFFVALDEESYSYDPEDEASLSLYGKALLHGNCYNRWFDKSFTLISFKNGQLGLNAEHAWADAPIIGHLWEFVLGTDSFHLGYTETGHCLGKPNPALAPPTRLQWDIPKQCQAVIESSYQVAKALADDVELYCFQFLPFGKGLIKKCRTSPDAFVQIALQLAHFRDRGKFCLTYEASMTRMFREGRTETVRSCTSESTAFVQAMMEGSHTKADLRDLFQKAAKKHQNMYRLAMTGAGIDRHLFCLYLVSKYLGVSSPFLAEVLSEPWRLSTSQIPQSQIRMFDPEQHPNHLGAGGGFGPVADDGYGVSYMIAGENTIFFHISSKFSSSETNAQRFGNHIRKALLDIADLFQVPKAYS

[2] = molecular target: T2, Carnitine O-palmitoyltransferase 2, mitochondrial (Rattus norvegicus, UniProt P18886); assay: (§1) SUPPLEMENTARY: Inhibition of Carnitine palmitoyltransferase 2
T2 sequence (P18886 whole entry): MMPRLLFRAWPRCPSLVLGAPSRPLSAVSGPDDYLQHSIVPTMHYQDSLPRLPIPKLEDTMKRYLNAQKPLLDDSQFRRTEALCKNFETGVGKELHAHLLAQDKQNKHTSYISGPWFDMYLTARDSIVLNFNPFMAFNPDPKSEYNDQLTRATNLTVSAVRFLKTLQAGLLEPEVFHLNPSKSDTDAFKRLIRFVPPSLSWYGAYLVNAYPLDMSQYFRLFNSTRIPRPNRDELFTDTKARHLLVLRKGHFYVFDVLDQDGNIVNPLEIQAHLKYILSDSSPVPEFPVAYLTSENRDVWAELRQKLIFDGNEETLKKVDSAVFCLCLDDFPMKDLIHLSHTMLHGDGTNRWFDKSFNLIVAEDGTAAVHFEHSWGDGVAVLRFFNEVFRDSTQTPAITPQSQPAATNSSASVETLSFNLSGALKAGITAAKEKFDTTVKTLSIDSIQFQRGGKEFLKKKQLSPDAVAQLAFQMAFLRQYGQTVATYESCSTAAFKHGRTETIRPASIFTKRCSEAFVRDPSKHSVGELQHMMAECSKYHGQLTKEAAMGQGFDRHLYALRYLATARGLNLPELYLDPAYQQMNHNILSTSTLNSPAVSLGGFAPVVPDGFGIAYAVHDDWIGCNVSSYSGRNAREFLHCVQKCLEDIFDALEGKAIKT

[3] = molecular target: T3, Carnitine O-palmitoyltransferase 2, mitochondrial (Homo sapiens, UniProt P23786); assay: as §1
T3 sequence (P23786 whole entry): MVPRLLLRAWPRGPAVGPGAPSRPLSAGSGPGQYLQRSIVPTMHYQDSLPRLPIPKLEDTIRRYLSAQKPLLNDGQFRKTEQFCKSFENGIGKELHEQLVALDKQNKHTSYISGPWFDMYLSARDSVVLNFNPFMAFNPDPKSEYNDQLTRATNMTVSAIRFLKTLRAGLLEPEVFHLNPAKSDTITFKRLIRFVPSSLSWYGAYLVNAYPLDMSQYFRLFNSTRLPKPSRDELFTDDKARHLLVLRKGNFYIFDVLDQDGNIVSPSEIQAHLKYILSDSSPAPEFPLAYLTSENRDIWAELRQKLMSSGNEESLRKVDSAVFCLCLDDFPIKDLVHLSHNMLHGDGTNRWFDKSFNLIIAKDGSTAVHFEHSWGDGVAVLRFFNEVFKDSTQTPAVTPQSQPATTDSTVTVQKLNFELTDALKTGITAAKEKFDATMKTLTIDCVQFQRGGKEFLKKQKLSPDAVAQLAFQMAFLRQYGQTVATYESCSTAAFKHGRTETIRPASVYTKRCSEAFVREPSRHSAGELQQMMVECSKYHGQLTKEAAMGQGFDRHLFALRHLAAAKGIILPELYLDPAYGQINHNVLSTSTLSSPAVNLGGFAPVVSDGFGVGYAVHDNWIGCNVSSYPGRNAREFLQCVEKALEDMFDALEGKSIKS

[4] = molecular target: T4, Carnitine O-palmitoyltransferase 1, liver isoform (Rattus norvegicus, UniProt P32198); assay: (§2) SUPPLEMENTARY: Inhibition of Carnitine palmitoyltransferase 1, liver isoform
T4 sequence (P32198 whole entry): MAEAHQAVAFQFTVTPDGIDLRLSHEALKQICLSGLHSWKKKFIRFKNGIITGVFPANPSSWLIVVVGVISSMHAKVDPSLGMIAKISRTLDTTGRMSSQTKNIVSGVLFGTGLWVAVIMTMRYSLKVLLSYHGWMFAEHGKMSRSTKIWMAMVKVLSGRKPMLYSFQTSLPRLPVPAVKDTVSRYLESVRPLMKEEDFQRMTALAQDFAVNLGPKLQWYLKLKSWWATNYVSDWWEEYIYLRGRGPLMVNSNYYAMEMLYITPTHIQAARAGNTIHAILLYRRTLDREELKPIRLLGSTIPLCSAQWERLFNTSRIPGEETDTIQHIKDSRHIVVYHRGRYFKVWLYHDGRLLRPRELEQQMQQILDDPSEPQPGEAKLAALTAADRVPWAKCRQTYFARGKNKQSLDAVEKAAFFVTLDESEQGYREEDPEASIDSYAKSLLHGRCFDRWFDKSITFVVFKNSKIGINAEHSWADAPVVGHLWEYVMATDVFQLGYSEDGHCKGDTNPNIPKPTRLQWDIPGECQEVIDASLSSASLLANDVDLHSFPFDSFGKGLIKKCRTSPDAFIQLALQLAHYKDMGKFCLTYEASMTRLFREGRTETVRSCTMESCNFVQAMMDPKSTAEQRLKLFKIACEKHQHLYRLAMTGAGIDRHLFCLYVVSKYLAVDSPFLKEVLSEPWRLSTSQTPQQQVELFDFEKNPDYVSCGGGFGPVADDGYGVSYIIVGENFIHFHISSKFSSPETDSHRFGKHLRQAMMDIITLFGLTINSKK

[5] = molecular target: T5, Carnitine O-palmitoyltransferase 1, liver isoform (Homo sapiens, UniProt P50416); assay: as §2
T5 sequence (P50416 whole entry): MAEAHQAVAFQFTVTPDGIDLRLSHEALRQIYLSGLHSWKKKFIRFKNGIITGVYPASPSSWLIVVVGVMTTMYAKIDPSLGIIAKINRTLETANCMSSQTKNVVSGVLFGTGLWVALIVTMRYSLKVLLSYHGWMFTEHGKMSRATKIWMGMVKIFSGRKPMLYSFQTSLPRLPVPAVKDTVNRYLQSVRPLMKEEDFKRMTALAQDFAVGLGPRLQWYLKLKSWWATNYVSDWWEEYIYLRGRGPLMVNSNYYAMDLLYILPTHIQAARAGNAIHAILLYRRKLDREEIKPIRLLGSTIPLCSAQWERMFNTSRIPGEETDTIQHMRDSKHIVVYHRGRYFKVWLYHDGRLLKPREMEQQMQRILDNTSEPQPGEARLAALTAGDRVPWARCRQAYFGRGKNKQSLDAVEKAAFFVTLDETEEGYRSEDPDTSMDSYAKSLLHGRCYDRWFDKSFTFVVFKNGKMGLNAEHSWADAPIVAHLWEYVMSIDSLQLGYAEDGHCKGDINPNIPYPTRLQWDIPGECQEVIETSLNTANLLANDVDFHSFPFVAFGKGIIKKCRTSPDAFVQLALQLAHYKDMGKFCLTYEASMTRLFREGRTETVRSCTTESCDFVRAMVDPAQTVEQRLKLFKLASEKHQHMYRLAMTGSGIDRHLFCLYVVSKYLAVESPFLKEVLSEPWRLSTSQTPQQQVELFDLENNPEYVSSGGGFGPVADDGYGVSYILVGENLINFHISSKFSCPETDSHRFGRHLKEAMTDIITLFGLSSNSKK

Compound | IC50 [1] [µM] | IC50 [2] [µM] | IC50 [3] [µM] | IC50 [4] [µM] | IC50 [5] [µM]
O=C(COc1ccccc1)N1CCCC[C@@H]1c1csc(-c2cccnc2)n1 | 4.16 | 52.2 | > 100 | 0.0627 | –
O=C(COc1ccccc1)N1CCCCC1c1cc(=O)n(-c2ccc(F)cc2)[nH]1 (configuration not stated) | > 100 | – | > 100 | 1.58 | 0.281
N#Cc1cccc(-c2csc([C@H]3CCCCN3C(=O)COc3ccccc3)n2)c1 | 8.1 | 68.1 | 6.55 | 0.128 | –
O=C(COc1ccccc1)N1CCCC[C@@H]1c1csc(Cc2ccc(Cl)cc2)n1 | > 100 | > 100 | > 100 | 2.9 | –
O=C(COc1ccccc1)N1CCCC[C@@H]1c1nc(-c2ccc3c(c2)OCO3)cs1 | > 100 | > 100 | 56 | 0.224 | –
O=C(COc1ccccc1)N1CCCC[C@@H]1c1csc(C2COc3ccccc3O2)n1 (some centres not stated) | > 100 | > 100 | > 100 | 3.62 | –
O=C(O)c1ccc(-c2nc([C@H]3CCCCN3C(=O)COc3ccccc3)cs2)cc1 | > 100 | > 100 | 5.1 | 2.23 | –
O=C(COc1ccccc1)N1CCCC[C@@H]1c1csc(-c2cnccn2)n1 | 59.8 | 88.9 | 32.7 | 0.589 | –
O=C(COc1ccccc1)N1CCCC[C@@H]1c1nc(-c2ccc(O)cc2)cs1 | 34.5 | > 100 | > 100 | 0.227 | –
O=C1CN(NC(=O)c2cccc(-c3n[nH]c([C@H]4CCCCN4C(=O)COc4ccccc4)n3)c2)C(=O)N1 | > 100 | – | 19.4 | 0.574 | 0.273
O=C(COc1ccccc1)N1CCCC[C@@H]1c1nc(-c2ccc(O)cc2)no1 | 39.2 | – | 75.5 | 0.124 | 0.0732

Other lines, results leading:

IC50 [1] [µM] | IC50 [2] [µM] | IC50 [3] [µM] | IC50 [4] [µM] | IC50 [5] [µM] | Compound
> 100 | > 100 | 49.8 | 2 | – | O=C(COc1ccccc1)N1CCCC[C@@H]1c1csc(-c2ccc(C(F)(F)F)cn2)n1
> 100 | – | > 100 | 0.958 | 0.206 | O=C(COc1ccccc1)N1CCCCC1c1ncc(-c2cccc([N+](=O)[O-])c2)s1 (configuration not stated)
7.62 | > 100 | 16.8 | 0.172 | – | COC(=O)c1cccc(-c2csc([C@H]3CCCCN3C(=O)COc3ccccc3)n2)n1
> 100 | 2.85 | 1.62 | – | 0.648 | O=C([C@H]1CCCCN1C(=O)COc1ccccc1)N1CCc2ccc([N+](=O)[O-])cc2C1
> 100 | > 100 | > 100 | 1.21 | – | COC(=O)c1ccc(-c2nc([C@H]3CCCCN3C(=O)COc3ccccc3)cs2)cc1
> 100 | 79.6 | > 100 | 0.219 | – | O=C(COc1ccccc1)N1CCCC[C@@H]1c1csc(-c2ccncc2)n1
2.71 | – | 2.04 | 0.0704 | 0.253 | Cc1cc(C)cc(S(=O)(=O)N2CCOc3ccc(C(=O)Nc4ccc(C(=O)O)c(F)c4)cc32)c1
5.66 | > 100 | 47.9 | 1.36 | – | O=C(COc1ccccc1)N1CCCC[C@@H]1c1nc(-c2ccc(Br)s2)cs1
29 | 2.12 | 0.782 | – | 0.53 | COc1ccc(Cl)cc1S(=O)(=O)N1COc2c(OC)cc(C(=O)Nc3ccc(C(=O)O)cc3)cc21
> 100 | 42.8 | 0.686 | 0.154 | – | O=C1Cc2cc(-c3csc([C@H]4CCCCN4C(=O)COc4ccccc4)n3)ccc2N1
> 100 | > 100 | > 100 | 0.44 | – | O=C(COc1ccccc1)N1CCCC[C@@H]1c1csc(-c2ccc(F)cc2)n1
19.5 | 99.1 | 81.3 | 0.301 | – | O=C(O)c1cccc(-c2csc([C@H]3CCCCN3C(=O)COc3ccccc3)n2)n1
– | – | – | 0.186 | – | COc1ccc(C)cc1S(=O)(=O)N1CCCc2ccc(C(=O)Nc3ccc(CC(=O)O)cc3)cc21
> 100 | > 100 | 3.68 | 0.12 | – | CC(=O)Nc1ccc(-c2csc([C@H]3CCCCN3C(=O)COc3ccccc3)n2)cc1
